Laboratory results from the supplement of paper PMC10307832.

Tests used:
Assay in all cases: relative viability (nuclei count vs DMSO), 5 days (fraction); higher = more cells survive
[1] = compound: C=C(c1ccc(C(=O)O)cc1)c1cc2c(cc1C)C(C)(C)CCC2(C)C [Bexarotene]
Method in brief: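 Cells of lung cancer lines were placed in 1536-well plates and kept overnight at 37 °C. Pinning then delivered five library-drug doses (not always all listed), spaced by √10, onto plates anchored with vehicle, and the cells were left 5 days without changing medium. One step fixed, permeabilised and stained them with Hoechst, and MetaXpress counted nuclei in 4× images. Viability, as a median over plates, is treated-well nuclei divided by vehicle-well nuclei, with acceptance only at control CV below 25% and at least one doubling.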

[2] = compound: C=C(c1ccc(C(=O)O)cc1)c1cc2c(cc1C)C(C)(C)CCC2(C)C [Bexarotene] + O=C(CCCCCCC(=O)Nc1ccccc1)NO [Vorinostat] (partner 1 µM)
Method in brief: (§1)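 Relative viability was taken as the ratio of nuclei in treated wells to nuclei in vehicle wells. Lung cancer cell lines in 1536-well plates received compounds by pin tool one day after seeding, either one drug alone or a fixed anchor-drug dose plus five library-drug doses (not always all listed) in √10 steps. Nuclei were counted on 4× images after 5 days of treatment, and values are medians of duplicate plates.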

[3] = compound: C=C(c1ccc(C(=O)O)cc1)c1cc2c(cc1C)C(C)(C)CCC2(C)C [Bexarotene] + CC(=O)c1c(C)c2cnc(Nc3ccc(N4CCNCC4)cn3)nc2n(C2CCCC2)c1=O [Palbociclib] (partner 0.5 µM)
Method in brief: as §1

[4] = compound: C=C(c1ccc(C(=O)O)cc1)c1cc2c(cc1C)C(C)(C)CCC2(C)C [Bexarotene] + CC(=O)Nc1cccc(-n2c(=O)n(C3CC3)c(=O)c3c(Nc4ccc(I)cc4F)n(C)c(=O)c(C)c32)c1 [Trametinib] (partner 0.02 µM)
Method in brief: as §1

[5] = compound: C=C(c1ccc(C(=O)O)cc1)c1cc2c(cc1C)C(C)(C)CCC2(C)C [Bexarotene] + Cc1cc(Nc2cc(N3CCN(C)CC3)nc(Sc3ccc(NC(=O)C4CC4)cc3)n2)n[nH]1 [Tozasertib] (partner 0.1 µM)
Method in brief: as §1

[6] = compound: C=C(c1ccc(C(=O)O)cc1)c1cc2c(cc1C)C(C)(C)CCC2(C)C [Bexarotene] + NC(=O)Nc1cc(-c2cccc(F)c2)sc1C(=O)N[C@H]1CCCNC1 [AZD7762] (partner 0.2 µM)
Method in brief: as §1

[7] = compound: C=C(c1ccc(C(=O)O)cc1)c1cc2c(cc1C)C(C)(C)CCC2(C)C [Bexarotene] + COc1cccc2cc(-c3nc([C@H]4CC[C@H](C(=O)O)CC4)n4ncnc(N)c34)[nH]c12 [OSI-027] (partner 0.5 µM)
Method in brief: as §1

[8] = compound: C=C(c1ccc(C(=O)O)cc1)c1cc2c(cc1C)C(C)(C)CCC2(C)C [Bexarotene] + O=C(c1cc(Cc2n[nH]c(=O)c3ccccc23)ccc1F)N1CCN(C(=O)C2CC2)CC1 [Olaparib] (partner 8 µM)
Method in brief: as §1

[9] = compound: C=C(c1ccc(C(=O)O)cc1)c1cc2c(cc1C)C(C)(C)CCC2(C)C [Bexarotene] + Nc1nc2[nH]cc(CCc3ccc(C(=O)N[C@@H](CCC(=O)O)C(=O)O)cc3)c2c(=O)[nH]1 [Pemetrexed] (partner 0.2 µM)
Method in brief: as §1

[10] = compound: C=C(c1ccc(C(=O)O)cc1)c1cc2c(cc1C)C(C)(C)CCC2(C)C [Bexarotene] + Nc1ncn([C@H]2C[C@H](O)[C@@H](CO)O2)c(=O)n1 [Decitabine] (partner 2 µM)
Method in brief: as §1

[11] = compound: C=C(c1ccc(C(=O)O)cc1)c1cc2c(cc1C)C(C)(C)CCC2(C)C [Bexarotene] + CCNC(=O)c1noc(-c2cc(C(C)C)c(O)cc2O)c1-c1ccc(CN2CCOCC2)cc1 [Luminespib] (partner 0.01 µM)
Method in brief: as §1

[12] = compound: C=C(c1ccc(C(=O)O)cc1)c1cc2c(cc1C)C(C)(C)CCC2(C)C [Bexarotene] + COc1cc2c(Oc3ccc(NC(=O)C4(C(=O)Nc5ccc(F)cc5)CC4)cc3F)ccnc2cc1OCCCN1CCOCC1 [Foretinib] (partner 0.25 µM)
Method in brief: as §1

[13] = compound: C=C(c1ccc(C(=O)O)cc1)c1cc2c(cc1C)C(C)(C)CCC2(C)C [Bexarotene] + N=C(N)NC(=N)NCCc1ccccc1 [Phenformin] (partner 250 µM)
Method in brief: as §1

[14] = compound: C=C(c1ccc(C(=O)O)cc1)c1cc2c(cc1C)C(C)(C)CCC2(C)C [Bexarotene] + Cc1nc(Nc2ncc(C(=O)Nc3c(C)cccc3Cl)s2)cc(N2CCN(CCO)CC2)n1 [Dasatinib] (partner 0.075 µM)
Method in brief: as §1

NCI-H1648 was tested, and the relative viability ([1]; 0.08 µM) was 1.02, the relative viability ([1]; 0.253 µM) was 0.971 and the relative viability ([1]; 0.8 µM) was 0.645. It also gave a relative viability ([1]; 2.53 µM) of 0.735, a relative viability ([1]; 8 µM) of 0.708 and a relative viability ([2]; first compound 0.08 µM) of 0.477. The relative viability ([2]; first compound 0.253 µM) was 0.422, the relative viability ([2]; first compound 0.8 µM) was 0.455 and the relative viability ([2]; first compound 2.53 µM) was 0.518. It also gave a relative viability ([2]; first compound 8 µM) of 0.639, a relative viability ([3]; first compound 0.08 µM) of 0.222 and a relative viability ([3]; first compound 0.253 µM) of 0.313. The relative viability ([3]; first compound 0.8 µM) was 0.229, the relative viability ([3]; first compound 2.53 µM) was 0.235 and the relative viability ([3]; first compound 8 µM) was 0.23. The relative viability ([4]; first compound 0.08 µM) was 0.448, the relative viability ([4]; first compound 0.253 µM) was 0.483 and the relative viability ([4]; first compound 0.8 µM) was 0.559. For the same cell line, the relative viability ([4]; first compound 2.53 µM) was 0.469, the relative viability ([4]; first compound 8 µM) was 0.529 and the relative viability ([5]; first compound 0.08 µM) was 0.453. For the same cell line, the relative viability ([5]; first compound 0.253 µM) was 0.559, the relative viability ([5]; first compound 0.8 µM) was 0.307 and the relative viability ([5]; first compound 2.53 µM) was 0.492. For the same cell line, the relative viability ([5]; first compound 8 µM) was 0.384, the relative viability ([6]; first compound 0.08 µM) was 0.615 and the relative viability ([6]; first compound 0.253 µM) was 0.57. For the same cell line, the relative viability ([6]; first compound 0.8 µM) was 0.623, the relative viability ([6]; first compound 2.53 µM) was 0.695 and the relative viability ([6]; first compound 8 µM) was 0.627. The relative viability ([7]; first compound 0.08 µM) was 0.272, the relative viability ([7]; first compound 0.253 µM) was 0.262 and the relative viability ([7]; first compound 0.8 µM) was 0.27. The relative viability ([7]; first compound 2.53 µM) was 0.225, the relative viability ([7]; first compound 8 µM) was 0.255 and the relative viability ([8]; first compound 0.08 µM) was 0.927. For the same cell line, the relative viability ([8]; first compound 0.253 µM) was 1.34, the relative viability ([8]; first compound 0.8 µM) was 0.712 and the relative viability ([8]; first compound 2.53 µM) was 0.766. It also gave a relative viability ([8]; first compound 8 µM) of 0.685, a relative viability ([9]; first compound 0.08 µM) of 0.897 and a relative viability ([9]; first compound 0.253 µM) of 0.738. It also gave a relative viability ([9]; first compound 0.8 µM) of 0.676, a relative viability ([9]; first compound 2.53 µM) of 0.585 and a relative viability ([9]; first compound 8 µM) of 0.619. It also gave a relative viability ([10]; first compound 0.08 µM) of 0.489, a relative viability ([10]; first compound 0.253 µM) of 0.409 and a relative viability ([10]; first compound 0.8 µM) of 0.451. For the same cell line, the relative viability ([10]; first compound 2.53 µM) was 0.36 and the relative viability ([10]; first compound 8 µM) was 0.465.

NCI-H1623 showed a relative viability ([1]; 0.08 µM) of 0.751, a relative viability ([1]; 0.253 µM) of 0.849 and a relative viability ([1]; 0.8 µM) of 0.815. The relative viability ([1]; 2.53 µM) was 0.854, the relative viability ([1]; 8 µM) was 0.806 and the relative viability ([5]; first compound 0.08 µM) was 0.452. For the same cell line, the relative viability ([5]; first compound 0.253 µM) was 0.431, the relative viability ([5]; first compound 0.8 µM) was 0.333 and the relative viability ([5]; first compound 2.53 µM) was 0.424. It also gave a relative viability ([5]; first compound 8 µM) of 0.416, a relative viability ([11]; first compound 0.08 µM) of 0.459 and a relative viability ([11]; first compound 0.253 µM) of 0.476. The relative viability ([11]; first compound 0.8 µM) was 0.481, the relative viability ([11]; first compound 2.53 µM) was 0.441 and the relative viability ([11]; first compound 8 µM) was 0.543. It also gave a relative viability ([7]; first compound 0.08 µM) of 0.439, a relative viability ([7]; first compound 0.253 µM) of 0.441 and a relative viability ([7]; first compound 0.8 µM) of 0.363. The relative viability ([7]; first compound 2.53 µM) was 0.407, the relative viability ([7]; first compound 8 µM) was 0.334 and the relative viability ([12]; first compound 0.08 µM) was 0.836. The relative viability ([12]; first compound 0.253 µM) was 0.813, the relative viability ([12]; first compound 0.8 µM) was 0.805 and the relative viability ([12]; first compound 2.53 µM) was 0.848. The relative viability ([12]; first compound 8 µM) was 0.773, the relative viability ([13]; first compound 0.08 µM) was 0.661 and the relative viability ([13]; first compound 0.253 µM) was 0.598. The relative viability ([13]; first compound 0.8 µM) was 0.528, the relative viability ([13]; first compound 2.53 µM) was 0.612 and the relative viability ([13]; first compound 8 µM) was 0.504. For the same cell line, the relative viability ([14]; first compound 0.08 µM) was 0.587, the relative viability ([14]; first compound 0.253 µM) was 0.501 and the relative viability ([14]; first compound 0.8 µM) was 0.568. For the same cell line, the relative viability ([14]; first compound 2.53 µM) was 0.579 and the relative viability ([14]; first compound 8 µM) was 0.531.
